{"source": "paper PMC7367283", "about": "“A PIP2 substitute mediates voltage sensor-pore coupling in KCNQ activation” (Communications Biology, 2020)", "system": "guinea pig ventricular myocytes", "test": "Action potential recording in ventricular myocytes with normal action potentials", "assay_type": "cell-based", "parameters": "actional potential duration (APD), Fig. 7h: unit not given here", "conditions": "for actional potential duration (APD), Fig. 7h: Control-Group, individual cells", "protocol": "Fig. 7 Effects of CP1 on IKs and action potentials in cardiomyocytes. a IKs currents in guinea pig ventricular myocytes in the absence and presence of 30 µM CP1 in the whole-cell patch-clamp configuration. Holding potential: −40 mV; testing potentials: −20 to +60 mV with 10-mV increment; returning potential: −20 mV. […] Guinea pig ventricular myocytes were first perfused with 10 µM CP1 and 10 µM chromanol. After APD reached steady state, 10 µM CP1 was constitutively perfused alone. Last, CP1 was washed out for near-full reversal of APD shortening. g Effects of 0.2 µM CP1 on LQT action potentials. To mimic the LQT, 100 µM moxifloxacin was applied 2 h before the treatment of CP1. h Change of action potential duration after application of different [CP1]s (n = 5–7). Tukey–Kramer ANOVA test was used to compare control cells in different CP1 concentration, # is significant at P < 0.05. Unpaired two-tailed Student t tests were used to compare control and moxifloxacin cells at different CP1 concentration: * is significant at P < 0.05.\nIn ventricular myocytes, the duration and the morphology of action potentials are determined by various ion channels. Mutations in many of these channels and drugs that modify channel functions, such as an increase in inward Na^+ currents or decrease in outward K^+ currents, may lead to a prolonged action potential duration, which results in an inherited or acquired long QT syndrome that predisposes afflicted patients to cardiac arrhythmia. An enhancement of the outward IKs current may be able to counter these mutations or drug effects, and restore the action potential duration to more normal values. […] Next, we used an IKr blocker (Moxifloxacin, Moxi) to prolong action potentials and then applied various concentrations of CP1.\nThe use of guinea pigs was approved by the Stony Brook University Institutional Animal Care and Use Committee. Single ventricular myocytes were acutely enzymatically isolated from guinea pig heart as previously described. Guinea pigs, weighing 300–500 g, were sacrificed by peritoneal injection of sodium pentobarbitone (1 ml, 390 mg/ml). The isolated cells were stored in KB solution containing (in mM) 83 KCl, 30 K2HPO4, 5 MgSO4, 5 Na pyruvate, 5 β-OH-butyric acid, 20 creatine, 20 taurine, 10 glucose, and 0.5 EGTA, pH 7.2.\nAction potentials were recorded with whole-cell patch-clamp recording techniques. Current-clamp configuration was used. Freshly isolated guinea pig cardiac myocytes were placed at 1 Hz with a stimulus of 180-pA amplitude and 10-mS duration. The APD was determined at 90% repolarization. Several minutes were allowed for the APD to reach steady state before data were collected. Typical Tyrode mimic AP Solution for action potential recording was used. The bath solution is composed of (in mM) 140 NaCl, 3 KCl, 1 MgCl2, 1.8 CaCl2, 10 HEPES, and 10 Glucose, pH 7.4. The pipette solution is composed of (in mM) 115 K-aspartic acid, 35 KOH, 3 MgCl2, 10 HEPES, 11 EGTA, 5 Glucose, and 3 MgATP, pH 7.4.", "note": "“And” between values parts separate entries of the source, which are not always exact repeats. Identical values can stand only once.", "data": [{"smiles": "O=S(=O)([O-])Oc1c(-c2sc3c(ccc4cccc(Cl)c43)c2OS(=O)(=O)[O-])[nH]c2ccc(Br)cc12.[Na+].[Na+]", "note": "[CP1, DISODIUM 5-BROMO-2-[9-CHLORO-3-(SULFONATOOXY) NAPHTHO [1,2-B] THIEN-2-YL]-1H-INDOL-3-YL SULFATE]", "values": [{"measurement": "action potential duration", "setting": "0.2 µM CP1, control myocytes", "result": "did not alter action potential duration"}, {"measurement": "action potential duration (APD)", "setting": "10 µM CP1 alone", "result": "significantly shortened"}, {"measurement": "action potential duration (APD)", "setting": "10 µM CP1 perfused together with 10 µM chromanol 293B", "result": "not changed"}, {"measurement": "action potentials in control cells", "setting": "0.6 and 6 µM CP1", "result": "shortened"}, {"measurement": "actional potential duration (APD), Fig. 7h", "setting": "0.2 µM CP1", "result": "682 and 570 and 576 and 550 and 596 and 520"}, {"measurement": "actional potential duration (APD), Fig. 7h", "setting": "0.6 µM CP1", "result": "473 and 609 and 463 and 428 and 542 and 511 and 475"}, {"measurement": "actional potential duration (APD), Fig. 7h", "setting": "6 µM CP1", "result": "347 and 378 and 362 and 454"}]}]}
